Here are results for six compounds from US5672604A, “1-phenylmethyl benzimidazole piperazine derivative” (Fabrica Espanola de Productos Quimicos y Farmaceuticos …, priority 1993, dated 1997).

One experiment concerns serotonin 5HT3 receptor. Nature of the experiment: Inhibition of serotonin-induced Bezold-Jarisch reflex in anaesthetised rat. Type of experiment: in vivo, Wistar rats. Particulars: i.v., 5 minutes before serotonin. On the procedure: After the arterial pressure (A.P.) and cardiac frequency (C.F.) parameters were stabilised, bradycardia reflex was induced by i.v. injection (the different dose of the drug tested) of 80 μv/kg (1 ml/kg) of serotonin dissolved in sterile physiological serum. Ten minutes later and after taking CF and AP back to constant levels, the products claimed herein were injected i.v. and after a lapse of five minutes, i.v. injection of the serotonin creatinine sulphate complex was repeated, quantifying the inhibition of the Bezold-Jarisch reflex.

Another experiment deals with T1, 5HT3 receptor (Cavia porcellus, UniProt O70212).
T1 construct: Guinea pig ileum fragments; from tissue; host or cells: guinea pig ileum fragments
T1 sequence (O70212 20-490): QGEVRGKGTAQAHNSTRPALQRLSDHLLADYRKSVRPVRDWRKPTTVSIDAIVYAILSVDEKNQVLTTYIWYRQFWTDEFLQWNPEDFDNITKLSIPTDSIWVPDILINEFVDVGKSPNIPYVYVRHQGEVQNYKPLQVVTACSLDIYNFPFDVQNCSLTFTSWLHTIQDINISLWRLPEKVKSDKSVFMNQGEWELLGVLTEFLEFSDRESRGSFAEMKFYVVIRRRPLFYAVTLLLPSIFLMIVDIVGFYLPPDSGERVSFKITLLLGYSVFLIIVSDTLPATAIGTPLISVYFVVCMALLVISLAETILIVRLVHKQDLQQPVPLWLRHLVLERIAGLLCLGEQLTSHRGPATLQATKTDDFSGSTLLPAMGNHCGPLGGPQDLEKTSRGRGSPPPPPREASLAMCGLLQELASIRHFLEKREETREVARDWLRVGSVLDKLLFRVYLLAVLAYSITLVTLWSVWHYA
Nature of the experiment: Inhibition of 2-methyl-serotonin induced contraction of guinea pig ileum. On the procedure:
b) Guinea pig ileum fragments were submerged in K-H solution at 37° C. pH 7.4, oxygenated with carbogen (95% O2 and 5% CO2) and with an effective preload of 1-2 g. They remained in a stabilization period for 45-60 minutes. and the physiological solution was replaced every 15 minutes. After this time, contractions were induced every 15 minutes, adding 2-methyl-serotonin (final conc.: 10 μmol/l). […] The inhibition percentages and CI50 were subsequently calculated (Table I).

The next experiment deals with T2, 5HT3 (Rattus norvegicus, UniProt P35563).
T2 construct: cort-ento; from tissue; host or cells: entorhinal cortex ('cort-ento')
T2 sequence (P35563 24-483): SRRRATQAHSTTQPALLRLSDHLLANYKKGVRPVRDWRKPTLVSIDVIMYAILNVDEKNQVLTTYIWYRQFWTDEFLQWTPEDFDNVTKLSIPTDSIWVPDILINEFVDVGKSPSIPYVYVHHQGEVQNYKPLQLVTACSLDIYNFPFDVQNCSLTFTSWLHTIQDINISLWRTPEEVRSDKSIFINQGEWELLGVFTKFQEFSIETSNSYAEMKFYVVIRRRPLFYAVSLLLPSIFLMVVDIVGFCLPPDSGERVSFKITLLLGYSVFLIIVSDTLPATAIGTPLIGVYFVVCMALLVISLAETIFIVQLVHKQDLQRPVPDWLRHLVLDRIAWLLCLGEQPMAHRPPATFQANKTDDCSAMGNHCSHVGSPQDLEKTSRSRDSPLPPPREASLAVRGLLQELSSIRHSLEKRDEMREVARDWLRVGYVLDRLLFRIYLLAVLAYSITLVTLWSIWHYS
In words: Bind 5HT3 cort-ento. Type of experiment: binding. The following applies: read-out: Bind 5HT3 cort-ento pki (converted).

Where [1] appears, read: guinea pig ileum, contraction by 2-methyl-serotonin 10 μmol/l, incubation 15 minutes, read-out: 2-me-5HT g.p. ileum CI50.

SMILES strings stand for the structures. Where two headings read alike, the source gives them in different places.

For `O=[N+]([O-])c1ccc2c(c1)nc(N1CCNCC1)n2Cc1ccccc1` [Product 3], the “B-J reflex rat-anaesth. DE50” value in the experiment with serotonin 5HT3 receptor is 7.4 μg/kg iv. For the same compound, the IC50 on 5HT3 receptor (setting [1]) came to 10.5 nM. At 5HT3, the Ki was 39.8 nM. In the case of `Oc1ccc2c(c1)nc(N1CCNCC1)n2Cc1ccccc1` [Product 5], the IC50 on 5HT3 receptor (setting [1]) is 116 nM. For `Cc1ccc2c(c1)nc(N1CCNCC1)n2Cc1ccccc1` [Product 1, 5-methyl-1-phenylmethyl-2-piperazinyl-1H-benzimidazole], the IC50 at 5HT3 receptor (setting [1]) worked out at 28.3 nM. On the same count and under the same terms, for `Fc1ccc2c(c1)nc(N1CCNCC1)n2Cc1ccccc1` [Product 4] the value was 1.65 nM. Same read-out and setting: with `Clc1cc2nc(N3CCNCC3)n(Cc3ccccc3)c2cc1Cl` [Product 6] the figure was 265 nM. `Clc1ccc2c(c1)nc(N1CCNCC1)n2Cc1ccccc1` [Product 2] yielded an IC50 against 5HT3 receptor of 7.2 nM.
